Results published in PubChem BioAssay (NCI).
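Tested at 5 concentrations; 48 h exposure; 96-well plates; endpoints linearly interpolated, else capped at highest concentration. TGI marks complete inhibition of growth.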

Columns and labels:
MALME-3M melanoma = assay: NCI tumour cell line growth inhibition, 48 h
A498 renal = assay: NCI tumour cell line growth inhibition, 48 h

## C/C(=N\NC(=S)N1CCOCC1)c1nc2ncccc2[nH]1
MALME-3M melanoma
  TGI: > 100 µM
A498 renal
  TGI: > 100 µM
